From patent US7166296B2, “Pharmaceutical formulations and ligands for use therein; mimetics for UEA-1” (Sarlan, Ltd., priority 2001, dated 2007)
pIC50: −log10 of the molar value. In brackets after ≈: the same amount, converted by molar mass. Structures can show the parent of a compound that is named as a salt.

Columns and labels:
[1] = system: UEA-1 binding sites on Caco-2 cell membrane preparations; test: Single tier competition assay: inhibition of biotinylated UEA-1 binding, compound and biotinylated UEA-1 incubated together; design: species or system human; details: for Single Tier Assay IC50 / pIC50: library MSI 27; for pIC50: read-out: Single Tier Assay IC50; for Av % Inhibition / Avg % Inhibtion: Single Tier Assay; for Av % Inhibition: library MSI 22; for Avg % Inhibtion: library MSI 26
Protocol: (§1) The epithelial cell binding ability of compounds and mixtures obtained from synthetic combinatorial libraries was determined by competition assays. These assays were set up to measure the inhibition of binding of biotinylated UEA-1 to membrane preparations of the epithelial cell line Caco-2 (colon carcinoma cells-2), by compounds and mixtures of the combinatorial libraries. This cell line is a conventional model for epithelial cells.
(§2) Two competition inhibition assays were used in this case, namely single tier and two tier assays. These assays differed from each other in that in the single tier assay, the mixtures/compounds and the biotinylated UEA-1 were incubated together with the Caco-2 cell membrane preparations, while in case of the two-tier assay, the mixture/compounds were allowed to incubate alone with the cell membranes in the absence of biotinylated UEA-1, which was added in the next step. Addition of the extra step in the two-tier assay was to ensure that the compounds inhibiting the binding of biotinylated UEA-1 to the Caco-2 cell membranes were doing so by themselves binding to surface receptors on the Caco-2 cells and not to the biotinylated UEA-1. Each assay will be described in detail.
(§3) • 1. Confluent Caco-2 cell monolayers (grown in 75 cm^2 flasks for up to 1 week at 37° C. and 5% CO2) were washed twice in Dulbecco's PBS (DPBS). • 2. Cell monolayers were treated with 10 mM EDTA-DPBS for 5–10 min at 37° C. and cells were harvested by centrifugation at 1000 rpm for 5 min. • 3. Cells were washed 3 times in DPBS. • 4. […] The cells were homogenised for 30 sec. • 6. The homogenates were centrifuged in hard walled tubes at 40,000 rpm for 45 min at 4° C. • 7. […] The supernatant was removed and stored on ice. The procedure was repeated adding the second supernatant to the first. • 8. The protein concentration was determined using e.g. a Bio-Rad protein assay. • 9. All fractions were stored at −80° C. prior to use. Single Tier Assays: • 1. 96-well microtiter plates were coated with membrane preparations of Caco-2 cells either by allowing them to incubate on the plates for 2½ hours at room temperature or by incubating them overnight at 4° C. 100 μl of 10 μg/ml (in 0.05 M carbonate buffer, pH 9.6) of membrane preparation was added to each well. • 2. The plates were flicked out, patted dry and blocked with bovine serum albumin (BSA)/DPBS (200 μl/well) for 1 to 4 hours at room temperature after which they were washed three times in water. • 3. […] Control wells were also set up in which the Caco-2 cell membrane preparations were incubated with unconjugated UEA-1. […] Following overnight incubation the plates were washed thoroughly (3–6 times). The plates were flicked out, patted dry and biotinylated UEA-1 was detected with commercial Streptavidin conjugated to horseradish peroxidase (HRP) (CalBiochem). […] The plates were left to incubate for an hour at room temperature. • 6. The plates were then washed 3–6 times and the biotin-streptavidin binding was detected by adding an HRP substrate OPD (orthophenyl diamine) to each well. 100 μl/well of this substrate at a final concentration of 1.6 mg/ml was added to each well. Before adding to the wells, this substrate was activated by addition of 50 μl of 3% H2O2 per plate and the reaction was allowed to develop in the dark. • 7. The reaction was stopped by adding 50 μl of 4 N H2SO4 to each well after approximately 5–10 minutes or when sufficient colour had developed. The OD490 (absorbance at 490 nm) of each well was measured using a conventional 96 well plate reading spectrophotometer. Two Tier Assays: • 1. 96 well plates were coated with Caco-2 cell membrane preparations in the same manner as described in the single tier assay. • 2. […] 100 μl at these final concentrations were added to each well. • 4. The plates were then left to incubate overnight, a step that would allow the mixtures and compounds to interact with the Caco-2 cell membranes without the presence of the competitor (biotinylated UEA-1) itself. • 5. […]

[2] = system: UEA-1 binding sites on Caco-2 cell membrane preparations; test: Two tier competition assay: compound incubated alone with membranes, biotinylated UEA-1 added in next step; design: species or system human; details: for Two Tier Assay IC50 / pIC50: library MSI 27; for pIC50: read-out: Two Tier Assay IC50; for Av % Inhibition / Avg % Inhibition: Two Tier Assay; for Av % Inhibition: library MSI 22; for Avg % Inhibition: library MSI 26
Protocol: as §1, §2, §3

SMILES | pIC50 [1] | pIC50 [2] | Av % Inhibition ([1]; 62.5 μg/ml) [%] | Av % Inhibition ([1]; 250 μg/ml) [%] | Av % Inhibition ([2]; 62.5 μg/ml) [%] | Av % Inhibition ([2]; 250 μg/ml) [%] | further results
COc1ccc(C(=O)NCCCCC(NC(=O)C(CCCCNC(=O)c2ccc(OC)c(OC)c2)NC(=O)C(CCCCNC(=O)c2ccc(OC)c(OC)c2)NC(C)=O)C(N)=O)cc1OC (stereo not shown) [Cpd 50] | 4.08 | 4.34 |  |  |  |  | Single Tier Assay IC50 [1]: 77.09 µg/mL; Two Tier Assay IC50 [2]: 42.79 µg/mL
CCOc1cc(C(=O)NCCCCC(NC(=O)C(CCCCNC(=O)c2cc(OCC)c(OCC)c(OCC)c2)NC(=O)C(CCCCNC(=O)c2cc(OCC)c(OCC)c(OCC)c2)NC(C)=O)C(N)=O)cc(OCC)c1OCC (stereo not shown) [Cpd 51] | 3.66 | 3.66 |  |  |  |  | 
COc1cc(C(=O)NCCCCC(NC(=O)C(CCCCNC(=O)c2cc(OC)c(OC)c(OC)c2)NC(=O)C(CCCCNC(=O)c2cc(OC)c(OC)c(OC)c2)NC(C)=O)C(N)=O)cc(OC)c1OC (stereo not shown) [Cpd 52] | 3.77 | 3.66 |  |  |  |  | Single Tier Assay IC50 [1]: 174.80 µg/mL; Two Tier Assay IC50 [2]: 226.70 µg/mL
CCOC(=O)Oc1c(OC)cc(C(=O)NCCCCC(NC(=O)C(CCCCNC(=O)c2cc(OC)c(OC(=O)OCC)c(OC)c2)NC(=O)C(CCCCNC(=O)c2cc(OC)c(OC(=O)OCC)c(OC)c2)NC(C)=O)C(N)=O)cc1OC (stereo not shown) [Cpd 53] | 4.12 | 4.02 |  |  |  |  | Single Tier Assay IC50 [1]: 90.15 µg/mL; Two Tier Assay IC50 [2]: 114.80 µg/mL
CC(=O)NC(CCCCNC(=O)c1cc(O)c(O)c(O)c1)C(=O)NC(CCCCNC(=O)c1cc(O)c(O)c(O)c1)C(=O)NC(CCCCNC(=O)c1cc(O)c(O)c(O)c1)C(N)=O (stereo not shown) [Cpd 54] | 5.12 | 5.48 |  |  |  |  | IC 50 (ug/ml) 1st tier ([1]; Table 8, galloyl constructs): 4 µg/mL (≈ 4.44 µM); IC50 ([1]; Table 8, galloyl constructs, read-out: IC 50 (uM) 1st tier (converted)): 5 µM; Single Tier Assay IC50 [1]: 6.85 µg/mL; IC 50 (ug/ml) 2nd tier ([2]; Table 8, galloyl constructs): 2 µg/mL (≈ 2.22 µM); IC50 ([2]; Table 8, galloyl constructs, read-out: IC 50 (uM) 2nd tier): 3 µM; Two Tier Assay IC50 [2]: 3.00 µg/mL
CC(=O)NC(CCCCNC(=O)c1ccc(O)cc1)C(=O)NC(CCCCNC(=O)c1ccc(O)cc1)C(=O)NC(CCCCNC(=O)c1ccc(O)cc1)C(N)=O (stereo not shown) [Cpd 55] | 3.51 | 3.51 |  |  |  |  | 
CC(=O)NC(CCCCNC(=O)c1cc(O)cc(O)c1)C(=O)NC(CCCCNC(=O)c1cc(O)cc(O)c1)C(=O)NC(CCCCNC(=O)c1cc(O)cc(O)c1)C(N)=O (stereo not shown) [Cpd 56] | 3.83 | 3.83 |  |  |  |  | Single Tier Assay IC50 [1]: 125.00 µg/mL; Two Tier Assay IC50 [2]: 125.00 µg/mL
CNC[C@@H](Cc1ccc2ccccc2c1)N(C)C[C@H](NC(=O)c1cc(O)c(O)c(O)c1)C(C)C [D-Napala, D-Val, Gallic Acid] |  |  | 4.7 | 26.8 | 24.2 | 46.9 | 
CNC[C@@H](Cc1ccc2ccccc2c1)N(C)C[C@H](Cc1ccc(Cl)cc1)NC(=O)c1cc(O)c(O)c(O)c1 [D-Napala, L-pCl-Phe, Gallic Acid] |  |  | −14.7 | 7.4 | 23.4 | 43.3 | 
CCC[C@H](CNC)N(C)C[C@H](NC(=O)c1cc(O)c(O)c(O)c1)C(C)C [D-Nve, D-Val, Gallic Acid] |  |  | 13.7 | 46 | 12.1 | 29.8 | 
CCC[C@H](CNC)N(C)C[C@@H](CC1CCCCC1)NC(=O)c1cc(O)c(O)c(O)c1 [D-Nve, D-chAla, Gallic Acid] |  |  | 22.0 | 47.8 | 20.6 | 48.5 | 
CCOc1ccc(C[C@H](CNC)N(C)C[C@@H](CCCNC(=N)NS(=O)(=O)c2ccc(C)cc2)NC(=O)c2cc(O)c(O)c(O)c2)cc1 [D-Tyr (Et), D-Arg(Tos), Gallic Acid] |  |  | 27.2 | 48 | 30 | 61 | 
CCOc1ccc(C[C@H](CNC)N(C)C[C@H](CC2CCCCC2)NC(=O)c2cc(O)c(O)c(O)c2)cc1 [D-Tyr (Et), L-chAla, Gallic Acid] |  |  | 8.5 | 33.3 | 31.8 | 52.7 | 
COc1cc(C(=O)OCCCN2CCCN(CCCOC(=O)c3cc(OC)c(OC)c(OC)c3)CC2)cc(OC)c1OC [Dilazep dihydrochloride, reference compound] |  |  |  |  |  |  | Avg % Inhibtion ([1]; 62.5 μg/ml): 14.7%; Avg % Inhibtion ([1]; 250 μg/ml): 10.4%; Avg % Inhibition ([2]; 62.5 μg/ml): −25%; Avg % Inhibition ([2]; 250 μg/ml): −25%
Oc1cc(O)c2c(c1)O[C@H](c1cc(O)c(O)c(O)c1)[C@H](O)C2 [Epigallocatechin, reference compound] |  |  |  |  |  |  | Avg % Inhibtion ([1]; 62.5 μg/ml): 10.1%; Avg % Inhibtion ([1]; 250 μg/ml): 0%; Avg % Inhibition ([2]; 62.5 μg/ml): −12%; Avg % Inhibition ([2]; 250 μg/ml): −10%
O=C(O[C@@H]1Cc2c(O)cc(O)cc2O[C@H]1c1cc(O)c(O)c(O)c1)c1cc(O)c(O)c(O)c1 [Gallocatechin gallate, reference compound] |  |  |  |  |  |  | Avg % Inhibtion ([1]; 62.5 μg/ml): 54.6%; Avg % Inhibtion ([1]; 250 μg/ml): 33.6%; Avg % Inhibition ([2]; 62.5 μg/ml): 7%; Avg % Inhibition ([2]; 250 μg/ml): 14.1%
CNC[C@H](Cc1ccc2ccccc2c1)N(C)C[C@@H](Cc1ccc2ccccc2c1)NC(=O)c1cc(O)c(O)c(O)c1 [L-NapAla, D-Napala, Gallic Acid] |  |  | −3 | 7 | 22.0 | 44.6 | 
CNC[C@H](Cc1ccc2ccccc2c1)N(C)C[C@H](Cc1ccc(Cl)cc1)NC(=O)c1cc(O)c(O)c(O)c1 [L-NapAla, L-pCl-Phe, Gallic Acid] |  |  | 31.5 | 46.9 | 26.7 | 54.7 | 
CCCCCCCCCCCCOC(=O)c1cc(O)c(O)c(O)c1 [Lauryl gallate, reference compound] |  |  |  |  |  |  | Avg % Inhibtion ([1]; 62.5 μg/ml): 39.1%; Avg % Inhibtion ([1]; 250 μg/ml): 22.5%; Avg % Inhibition ([2]; 62.5 μg/ml): 20.4%; Avg % Inhibition ([2]; 250 μg/ml): 47.9%
